Data: PMC7738869, “A novel STAT3 inhibitor W2014-S regresses human non-small cell lung cancer xenografts and sensitizes EGFR-TKI acquired resistance” (Theranostics, 2021)

Legend:
STAT3 [1] = assay: STAT3-dependent dual-luciferase reporter assay in 293T cells; assay type: cell-based, human; settings: 293T, 0, 0.3, 1 μM, 24 h
Method: (§1) The STAT3-dependent luciferase reporter, pGL3-STAT3, contained seven copies of the STAT3-specific binding sequence ([…]) in the C-reactive protein gene promoter, and drove firefly luciferase expression. The new construct was confirmed by sequencing. For luciferase studies, 293T cells or A549 cells in 96-well plates were transiently co-transfected with the appropriate plasmids (10 ng TKRL as internal control vector for normalizing and 50 ng of pGL3-STAT3) using Lipofectamine 2000 (11668500, Invitrogen, Carlsbad, CA, USA) which was following the manufacturer's protocol. After 24 h, HEK-293T cells were treated with 0-1 μM W2014-S for 24 h, and stimulated with IL-6 (100 ng/mL, PeproTech) for 1 h or EGF (50 ng/mL, PeproTech) for 30 min. Subsequently, cytosolic extracts were prepared for dual-luciferase reporter assay.

STAT3-STAT3 dimerization = STAT3-STAT3 dimerization (Homo sapiens, UniProt P40763); assay: Co-immunoprecipitation of HA-STAT3 and Flag-STAT3 in A549 cells; assay type: cell-based; set-up: expressed in transfected cells; host or cells: A549; settings: A549, 0, 0.3, 1 μM, 24 h
Method: (§2) Cells or tumor tissue were lysed with RIPA buffer (Beyotime, Shanghai, China) supplemented with protease inhibitors (Beyotime, Shanghai, China) and phosphatase inhibitors (Bimake, USA). Lysates were denatured by heating for 5 min at 99 °C and loaded on 4-10% SDS-polyacrylamide gel electrophoresis. Then the proteins were transferred to polyvinylidene fluoride (PVDF) membranes (Millipore, USA). The membranes were blocked and probed with primary antibodies and secondary HPR-conjugated antibodies. At last the membranes were detected by chemiluminescence (Tanon, Shanghai, China). For co-immunoprecipitation experiments, 293T cells were plated and grew to about 80% confluency, then co-transfected with plasmids of HA-STAT3 and Flag-STAT3 using Lipofectamine 2000. After 24 h, cells were treated with different concentrations of W2014-S for following 24 h, and stimulated with IL-6 (100 ng/mL) for 1 h. Cells were lysed with IP RIPA buffer (Beyotime, Shanghai, China) supplemented with protease inhibitors (Beyotime, Shanghai, China) and phosphatase inhibitors (Bimake, America), and lysates were cultured with Anti-flag Affinity Gel (B23102, Bimake, USA) overnight at 4 ℃. The gel was washed by PBST for three times and added 1×loading buffer and denatured by heating for 5 min at 99 ℃. Then the proteins were resolved on SDS-PAGE, transferred to PVDF membranes and analysed with immunoblotting.

A549 cells [2] = assay: Wound healing assay for migration; assay type: cell-based, human; settings: 48 h
Method: The motility of cells was measured by wound healing assay. Cells were seeded into 6-well plates and cultured to 90-100% confluent after 24 h. Wounds were made in each well of 6-well plates using pipette tips. […] The migration of cells was visualized under a microscope (4 ×, Nikon, Japan) and photographed in different time points (0 and 48 h).

c-Caspase-7 = assay: Western blot of c-Caspase-7 in A549 and PC-9 cells; assay type: cell-based, human
Method: as §2

[3] = system: pY705-STAT3 and pY1068-EGFR; assay: Western blot of pY705-STAT3 and pY1068-EGFR in PC-9/GR cells; assay type: cell-based, human; settings: W2014-S 1 μM and/or gefitinib 2 μM, 24 h
Method: Cells or tumor tissue were lysed with RIPA buffer (Beyotime, Shanghai, China) supplemented with protease inhibitors (Beyotime, Shanghai, China) and phosphatase inhibitors (Bimake, USA). Lysates were denatured by heating for 5 min at 99 °C and loaded on 4-10% SDS-polyacrylamide gel electrophoresis. Then the proteins were transferred to polyvinylidene fluoride (PVDF) membranes (Millipore, USA). The membranes were blocked and probed with primary antibodies and secondary HPR-conjugated antibodies. At last the membranes were detected by chemiluminescence (Tanon, Shanghai, China). […] Cells were lysed with IP RIPA buffer (Beyotime, Shanghai, China) supplemented with protease inhibitors (Beyotime, Shanghai, China) and phosphatase inhibitors (Bimake, America), and lysates were cultured with Anti-flag Affinity Gel (B23102, Bimake, USA) overnight at 4 ℃. The gel was washed by PBST for three times and added 1×loading buffer and denatured by heating for 5 min at 99 ℃. Then the proteins were resolved on SDS-PAGE, transferred to PVDF membranes and analysed with immunoblotting.

A549 cells [4] = assay: Colony formation assay, A549; assay type: cell-based, human; settings: A549, as low as 0.3 μM
Bcl-2, Bcl-xL and c-Myc = assay: Western blot of STAT3 downstream genes in A549 and PC-9 cells; assay type: cell-based, human; settings: A549 and PC-9, 0-3 μM, 24 h
Method: as §2

JAK2 = assay: Western blot of phosphorylated and total JAK2 in A549 and PC-9 cells; assay type: cell-based, human; settings: A549 and PC-9, 0-3 μM, 24 h
Method: as §2

A549 cells [5] = assay: Transwell cell invasion assay, A549; settings: A549, 1 μM
Method: Transwell invasion assays were performed as previously reported [37] using Transwell chamber (Costar, USA). […] Data from triplicates experiments were pooled and plotted as shown.

pY705-STAT3 = assay: Immunofluorescence of nuclear pY705-STAT3 in A549 cells; assay type: cell-based, human; settings: A549, 3 h treatment
Method: A549 cells were cultured into confocal dishes (Costar, USA). After 24 h, W2014-S was added into dishes. After another 3 h, cells were fixed with 4% paraformaldehyde in PBS for 10 min at room temperature. Then cells were permeabilized with 0.3% Trition X-100 for 5 min at room temperature, following by incubating with primary antibody overnight at 4 ℃. Next, cells were incubated with Alexa-Fluor-conjugated secondary antibodies for 1 h in the dark. The cells were subsequently stained with DAPI (40728ES50, Yeasen, Shanghai, China). Images were captured by Laser Scanning Confocal Microscope FV3000 (Olympus, Japan). Z-stacks were collected with a spacing of 1 μm. Antibody and dilutions used in the studies were: pY705-STAT3 (9145S, Cell Signaling Technology, 1:100), Alexa Fluor 488 Conjugate (1:5000, #4412, Cell signaling Technology, USA). The fluorescence intensity profile along the Z-axis from confocal Z-stacks was shown. The fluorescence intensity of nuclear-localized p-STAT3 was quantified using the confocal software to define the area of the selected region of interest based on the nuclear DAPI signal. Each experiment was done in at least 3 independent experiments.

A549 cells [6] = assay: Cell apoptosis assay (Annexin V-FITC/PI flow cytometry), A549; assay type: cell-based, human; settings: A549, 1.0 μM, 72 h
Method: Briefly, aliquots of 2 × 10^5 cells were seeded into 6-well plates and incubated for 24 h at 37 °C. […] After trypsinization and gently washing cells once with medium, the cells were washed twice with cold PBS. The precipitation was resuspended by 400 μL of 1 × binding buffer, and then resuspended cells were transferred into new 1.5 mL EP tubes. Then 3 μL of Annexin V-FITC and 5 μL of propidium iodide were added to the resuspended cells with further incubation at room temperature for 15 min in the dark. The analysis was done on Guava easyCyte (USA) and FlowJo 7.6 software.

STAT3 [7] = assay: STAT3-dependent dual-luciferase reporter assay in A549 cells; assay type: cell-based, human; settings: A549, 0, 0.3, 1 μM, 24 h
Method: as §1

STAT3-STAT3 dimerization, sequence (P40763 whole entry): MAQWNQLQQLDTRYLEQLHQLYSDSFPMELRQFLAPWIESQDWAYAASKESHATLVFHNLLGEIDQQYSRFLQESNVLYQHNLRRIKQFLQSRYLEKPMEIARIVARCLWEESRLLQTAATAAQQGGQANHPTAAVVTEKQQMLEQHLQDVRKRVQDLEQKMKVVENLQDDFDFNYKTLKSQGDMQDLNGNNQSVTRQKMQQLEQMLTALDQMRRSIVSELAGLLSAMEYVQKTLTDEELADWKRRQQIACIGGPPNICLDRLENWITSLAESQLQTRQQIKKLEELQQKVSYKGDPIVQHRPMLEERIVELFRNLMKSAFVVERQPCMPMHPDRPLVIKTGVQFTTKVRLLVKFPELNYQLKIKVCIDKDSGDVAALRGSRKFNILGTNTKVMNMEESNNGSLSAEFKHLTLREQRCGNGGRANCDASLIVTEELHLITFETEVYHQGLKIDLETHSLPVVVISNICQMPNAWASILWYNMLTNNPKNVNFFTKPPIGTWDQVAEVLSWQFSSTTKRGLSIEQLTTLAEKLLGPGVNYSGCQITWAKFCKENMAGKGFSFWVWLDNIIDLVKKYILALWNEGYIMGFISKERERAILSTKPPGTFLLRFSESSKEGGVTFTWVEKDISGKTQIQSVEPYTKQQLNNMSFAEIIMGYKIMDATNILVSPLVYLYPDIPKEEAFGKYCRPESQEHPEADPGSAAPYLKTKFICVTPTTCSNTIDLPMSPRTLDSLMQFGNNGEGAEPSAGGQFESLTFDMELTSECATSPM

## C[C@H](Oc1ccc(-c2nc3nc(C4=CCN(C(=O)OC(C)(C)C)CC4)ccc3[nH]2)cc1)c1ccccc1 [W2014-S]
STAT3 [1]
  STAT3-dependent luciferase reporter activity induced by IL-6: dose-dependently inhibited
STAT3-STAT3 dimerization
  dimerization of HA-STAT3 and Flag-STAT3: inhibited by W2014-S in a dosage-dependent manner
A549 cells [2]
  cell migration: remarkably inhibited the migration
c-Caspase-7
  cleavage of caspase-7: induced
[3]
  level of pY705-STAT3 and pY1068-EGFR: reduced the phosphorylation of STAT3
A549 cells [4]
  colony formation: significantly suppressed the colony formation
Bcl-2, Bcl-xL and c-Myc
  expression of STAT3 downstream genes Bcl-2, Bcl-xL and c-Myc: inhibited by W2014-S dose-dependently
JAK2
  protein level of phosphorylated JAK2 and total JAK2: little or no effect
A549 cells [5]
  cell invasion: suppressed
pY705-STAT3
  accumulation of pY705-STAT3 in the nucleus: decreased
A549 cells [6]
  apoptosis: induced apoptosis
STAT3 [7]
  STAT3 transcriptional activity (luciferase reporter): inhibited
